Assay results published in patent US20050250820A1, “Therapeutic modulation of PPARgamma activity” (Amgen Inc., priority 2004, published 2005).

Columns and labels:
[1] = molecular target: T1, PPARγ (UniProt P37231); experiment: PPARγ ligand binding assay utilizing [3H]-BRL 49653 as the radioligand; settings: concentration required to reduce specific binding by 50%
T1 construct: fused on or other part: GST tag fused to PPARgamma, used for capture on glutathione beads
T1 sequence (P37231 1-505): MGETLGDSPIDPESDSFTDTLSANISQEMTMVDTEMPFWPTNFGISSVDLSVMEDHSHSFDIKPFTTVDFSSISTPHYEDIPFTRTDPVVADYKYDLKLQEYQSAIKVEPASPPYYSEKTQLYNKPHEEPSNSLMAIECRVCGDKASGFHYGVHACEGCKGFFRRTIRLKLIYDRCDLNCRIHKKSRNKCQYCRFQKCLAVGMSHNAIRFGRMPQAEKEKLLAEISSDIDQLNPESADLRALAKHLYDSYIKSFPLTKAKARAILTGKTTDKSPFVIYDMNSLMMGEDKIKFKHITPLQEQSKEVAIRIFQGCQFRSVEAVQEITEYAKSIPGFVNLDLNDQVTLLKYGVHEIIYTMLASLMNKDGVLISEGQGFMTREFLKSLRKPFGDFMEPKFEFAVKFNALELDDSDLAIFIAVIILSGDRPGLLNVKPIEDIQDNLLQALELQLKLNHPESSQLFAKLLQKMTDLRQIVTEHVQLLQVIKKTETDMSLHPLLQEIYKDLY
Text: The compounds for use according to the present invention can be evaluated for modulation of the PPARγ receptor using assays such as those described in Jiang, et al., Nature 391:82-86 (1998), Ricote, et al., Nature 391:79-82 (1998) and Lehmann, et al., J. Biol. Chem. 270(12): 12953-12956 (1995). Alternatively, the compounds for use according to the invention can be evaluated for their ability to displace radiolabeled BRL 49653 from a PPARγ-GST fusion protein as follows:
PPAR-γ-GST fusion protein (prepared according to standard procedures), [^3H]-BRL 49653 having 50 Ci/mmol specific activity, Polyfiltronics Unifilter 350 filtration plate and glutathione-Sepharose® beads (from Pharmacia: washed twice with 10× binding buffer in which BSA and DTI can be left out).
Binding buffer (10 mM Tris-HCl, pH 8.0, 50 mM KCl, 10 mM DTT, 0.02% BSA and 0.01% NP-40) is added in 80 microliter amounts to the wells of the filtration plate. The test compound is then added in 10 microliters of DMSO. The PPARy-GST fusion protein and radiolabeled BRL compound are premixed in binding buffer containing 10 mM DTT and added in 10 microliter amounts to the wells of the plate to provide final concentrations of 1 μg/well of PPAR-γ-GST fusion protein and 10 nM [^3H]-BRL 49653 compound. The plate is incubated for 15 minutes. Glutathione-agarose bead is added in 50 μL of binding buffer, and the plate is vigorously shaken for one hour. The plate is washed four times with 200 μL/well of binding buffer (without BSA and DTT). The bottom of the plate is sealed and 200 μL/well of scintillation cocktail is added. The top of the plate is then sealed and the radioactivity is determined. Formulation and Administration of the Compounds (Compositions) for Use According to the Invention

[2] = test system: KK-Ay mice; experiment: anti-diabetic efficacy in KK-Ay mice (change in serum glucose levels); format: in vivo; settings: 0.018% (30 mg/kg) dietary admixture in powdered diet, change in serum glucose levels compared to untreated control animals
Procedure: Selected compounds were administered to KK-Ay mice as a 0.018% (30 mg/kg) dietary admixture in powdered diet and evaluated for anti-diabetic efficacy as described (T. Shibata, K. Matsui, K. Nagao, H. Shinkai, F. Yonemori and K. Wakitani 1999; European Journal of Pharmacology 364:211-219). The change in serum glucose levels compared to untreated control animals is exemplified in Table 39.

| IC50 [1] | melting point | SMILES | KKAy Glucose [2] |
| --- | --- | --- | --- |
| < 10 µM | 82 to 84 °C | O=S(=O)(Nc1cc(Cl)c(Oc2nc3ccc(Cl)cc3s2)c(Cl)c1)c1ccc(C(F)(F)F)cc1Cl [Example 365, 2-Chloro-N-[3,5-dichloro-4-(6-chloro-benzothiazol-2-yloxy)-phenyl]-4-trifluoromethyl-benzenesulfonamide] | ++ ((++) glucose lowering >20%) |
| < 1 µM | 225.1 °C | O=S(=O)(Nc1cc(Cl)c(Sc2cnc3ccccc3c2)c(Cl)c1)c1ccc(C(F)(F)F)cc1Cl [Example 87.3] | ++ ((++) glucose lowering >20%) |
